Reference: US10201564B2, “Methods of using inhaled nitric oxide gas for treatment of acute respiratory distress syndrome in children” (Mallinckrodt Hospital Products IP Limited, priority 2014, dated 2019)
“And” between values parts separate entries of the source, which are not always exact repeats. Equal entries are not always repeated. “Also recorded” adds a separate entry of the source.

Key:
Format in all cases: in vivo, human
[1] = system: pediatric subjects with acute hypoxemic respiratory failure (AHRF); assay: Pediatric AHRF study, nitric oxide 5 ppm versus placebo: efficacy and subject outcome
Protocol: This was a prospective, multicenter, randomized, double-blind, placebo-controlled, parallel-group study of the safety and efficacy of inhaled nitric oxide in pediatric subjects with acute hypoxemic respiratory failure (AHRF). The subjects were randomized to receive either 5 ppm inhaled nitric oxide or placebo.
Nitric Oxide for inhalation at 5 ppm was administered continuously into the inspiratory limb of the ventilator circuit in mechanically ventilated subjects using a blinded version of the INOvent® delivery system.
Subjects received 100% treatment gas (nitric oxide 5 ppm or placebo [nitrogen gas]) until Day 28 or extubation, whichever occurred first.
Placebo consisting of 100% Grade 5 nitrogen gas was administered continuously into the inspiratory limb of the ventilator circuit in mechanically ventilated subjects using a blinded version of the INOvent® delivery system at a rate equivalent to a 5 ppm dose of nitric oxide.
This was a prospective, multicenter, randomized, double-blind, placebo-controlled, Phase III study to assess the effects of nitric oxide for inhalation in the treatment of acute hypoxic respiratory failure (AHRF) in pediatric subjects. The study population consisted of male and female pediatric subjects, aged 44 weeks postconceptional age to 16 years age, who were admitted to the pediatric intensive care unit (PICU) and who required intubation because of AHRF. The inclusion/exclusion criteria are described in the Patients section below.
(§1) Standardized ventilatory management and weaning procedures were used. Ventilatory management was used based on an “open lung approach” using positive end-expiratory pressure (PEEP) to increase lung volume and limiting tidal volumes to reduce plateau pressures. Subjects received nitric oxide for inhalation at 5 ppm or placebo (100% Grade 5 nitrogen gas) into the inspiratory limb of the ventilator circuit using a blinded version of the INOvent® delivery system. The subjects were treated until Day 28 or extubation, whichever occurred first. Subjects were assessed daily using a spontaneous breathing trial, according to the institution's standard of care. Arterial blood gases (ABG), ventilator settings, methemoglobin, oxygenation index, systolic blood pressure, diastolic blood pressure, Pediatric Risk of Mortality (PRISM) III score, and subject positioning (prone or supine) were performed/recorded at specified times during the study. Selected centers also performed plasma cytokine assays, bronchoalveolar lavage fluid (BALF) assays, and a 6-month follow-up assessment.
Inclusion criteria for patients were as follows: • 1. 44 weeks post-conceptional age to 16 years of age • 2. Oxygenation Index (OI)≥12 cm H2O/mmHg (as determined by two separate measurements taken 30 minutes to 4 hours apart) • 3. Recent chest x-ray (within 24 hours) showing at least unilateral infiltrates • 4. Mechanically ventilated (oral or nasopharyngeal)<7 days
Exclusion criteria for patients were as follows: • 1. Immunocompromised • 2. Received a bone marrow transplant • 3. Active oncological condition • 4. Persistent right to left intracardiac shunt • 5. Cardiovascular surgery within the last 14 days • 6. Status asthmaticus • 7. Decision by primary care physician not to provide full support (futility) • 8. Received treatment with nitric oxide for inhalation or other investigational medications with 24 hours prior to study initiation. • 9. Chronically ventilated • 10. Pregnant Study Design and Schedule of Assessments:
Extubation was considered when: • i. Pressure support of <10 cm H2O • ii. FiO2<0.60 • iii. PEEP<6 cm H2O • iv. Nitric oxide has been discontinued for 30 minutes
Extubation occurred within 12 hours of meeting the above criteria. If a patient met the above criteria but was not extubated within 12 hours, the reason (i.e. airway protection, surgery, secretions clearance, etc.) was documented.

[2] = system: pediatric subjects with acute hypoxemic respiratory failure (AHRF); assay: Pediatric AHRF study: percent methemoglobin levels; conditions: 5 ppm
Protocol: as §1
(§2) The following assessments were made at baseline: arterial blood gases, ventilator settings, methemoglobin, prone position, PRISM III score, oxygenation index, systolic and diastolic blood pressure, bronchoalveolar lavage fluid assay and plasma cytokine.
The following assessments were made at 4 hours±1 hour after the start of therapy: arterial blood gases, ventilator settings and methemoglobin.
(§3) The following assessments were made at 24 hours±2 hours after the start of therapy: arterial blood gases, ventilator settings, methemoglobin, systolic and diastolic blood pressure and plasma cytokine.
Percent methemoglobin levels were obtained at baseline and at Hours 4 and 24. […] These levels were well below levels that would have necessitated discontinuation of treatment.

[3] = system: pediatric subjects with acute hypoxemic respiratory failure (AHRF); assay: Pediatric AHRF study: vital signs (systolic and diastolic blood pressure); conditions: 5 ppm
Protocol: as §1, §2, §3
Mean systolic and diastolic blood pressure increased slightly from baseline in both groups at 24 hours. Descriptive statistics for systolic and diastolic blood pressure, which were taken both at baseline and at 24 hours, are summarized Table 26.

[4] = 5 ppm, discharge evaluation, N 26
[5] = 5 ppm, in words, approached statistical significance

**Q.** [N]=O [Nitric Oxide, nitric oxide] was tested. Which “completed 28 days of the study or successfully extubated” value ([1]; 5 ppm) did it give?
**A.** Its value is 21 (80.8%) n (%).

**Q.** What about the “Days on supplemental O2, Median” value ([1]; 5 ppm, N 10) of the same molecule?
**A.** Its value is 18.1 days.

**Q.** And the “Number of days on supplemental O2, Mean (SD)” value ([1]; 5 ppm, N 10)?
**A.** The value was 19.6 (13.4) ^ days and 19.6 (13.4) days.

**Q.** And the “Days originally intubated, Median” value ([1]; 5 ppm, N 20)?
**A.** The value was 13.7 days.

**Q.** And the “Number of days originally intubated, Mean (SD)” value ([1]; 5 ppm, N 20)?
**A.** Its value is 13.6 (6.8) ^ days and 13.6 (6.8) days.

**Q.** What about the “Days in PICU, Median” value ([1]; 5 ppm, N 22) of the same molecule?
**A.** The value was 17.3 days.

**Q.** And the “Number of days in PICU, Mean (SD)” value ([1]; 5 ppm, N 22)?
**A.** Its value is 17.8 (8.3) ^ days and 17.8 (8.3) days.

**Q.** And the Clinical sepsis [1, 4]?
**A.** Its Clinical sepsis is 4 (15.4%) n (%).

**Q.** What about the “Died (cause of death related to pulmonary condition)” value [1, 4] of the same molecule?
**A.** The value was 0 (0) ^ n (%).

**Q.** What about the “ECMO at any time during treatment” value [1, 4] of the same molecule?
**A.** The value was 0 (0) ^ n (%).

**Q.** What about the “HFOV at any time during treatment” value [1, 4] of the same molecule?
**A.** The value was 11 (42.3%) n (%).

**Q.** What about the “Intubated on Day 28” value [1, 4] of the same molecule?
**A.** The value was 2 (7.7%) n (%).

**Q.** And the Pneumothorax [1, 4]?
**A.** Its Pneumothorax is 3 (11.5%) n (%).

**Q.** What about the “Receiving supplemental O2 on Day 28” value [1, 4] of the same molecule?
**A.** Its value is 11 (42.3%) n (%).

**Q.** And the Survival [1, 4]?
**A.** Its Survival is 23 (88.5%) n (%).

**Q.** And the “VAP (ventilator-associated pneumonia)” value [1, 4]?
**A.** The value was 5 (19.2%) n (%).

**Q.** And the “days in the PICU versus placebo” value ([1]; 5 ppm, in words)?
**A.** Its value is “lower”.

**Q.** And the “duration (mean number of days) of supplemental oxygen versus placebo” value ([1]; 5 ppm, in words)?
**A.** The value was “higher”.

**Q.** What about the “frequency of extracorporeal membrane oxygenation versus placebo” value ([1]; 5 ppm, in words) of the same molecule?
**A.** Its value is “lower”.

**Q.** And the “frequency of high frequency oscillatory ventilation versus placebo” value ([1]; 5 ppm, in words)?
**A.** The value was “lower”.

**Q.** What about the “frequency of pneumothorax versus placebo” value ([1]; 5 ppm, in words) of the same molecule?
**A.** Its value is “lower”.

**Q.** What about the “frequency of ventilator-associated pneumonia at discharge versus placebo” value ([1]; 5 ppm, in words) of the same molecule?
**A.** Its value is “higher”.

**Q.** And the “mean duration (number of days) of intubation versus placebo” value ([1]; 5 ppm, in words)?
**A.** The value was “lower”.

**Q.** What about the “duration of mechanical ventilation (MV)” value [1, 5] of the same molecule?
**A.** Its value is “shortened”.

**Q.** What about the rate of survival [1, 5] of the same molecule?
**A.** The rate of survival was “improved”.

**Q.** And the “rate of ECMO free survival versus placebo” value ([1]; 5 ppm, in words, listed as iNO)?
**A.** The value was “significantly greater; also recorded: significantly higher”.

**Q.** What about the “Day 28 (completed 28 days)” value ([1]; 5 ppm, n = 26, subject outcome) of the same molecule?
**A.** Its value is 1 (3.8%) n (%).

**Q.** What about the Death ([1]; 5 ppm, n = 26, subject outcome) of the same molecule?
**A.** The Death was 2 (7.7%) n (%).

**Q.** And the Successful extubation ([1]; 5 ppm, n = 26, subject outcome)?
**A.** The Successful extubation was 20 (76.9%) n (%).

**Q.** And the Total discontinued ([1]; 5 ppm, n = 26, subject outcome)?
**A.** Its Total discontinued is 5 (19.2%) n (%).

**Q.** And the “rate of ECMO free survival” value ([1]; 5 ppm, placebo 15 of 29, p<0.01)?
**A.** The value was 22 of 24.

**Q.** And the “Survival at 28 days” value ([1]; 5 ppm, placebo 21 of 29, p=0.07)?
**A.** The value was 22 of 24.

**Q.** What about the survival rate ([1]; 5 ppm, placebo 72.4%) of the same molecule?
**A.** Its survival rate is 88.5%.

**Q.** And the “oxygenation index (OI)” value ([1]; 4 hours, 5 ppm, placebo 26.1+/−19.5, p=0.09)?
**A.** The value was 14.3+/−5.9.

**Q.** And the “oxygenation index (OI)” value ([1]; 12 hours, 5 ppm, placebo 24.5+/−22.0, p=0.04)?
**A.** Its value is 14.7+/−6.0.

**Q.** And the “oxygenation index (OI)” value ([1]; 24 hours, 5 ppm, placebo 16.7+/−9.9, p=0.53)?
**A.** The value was 15.2+/−10.8.

**Q.** What about the “number of days that a child is ventilator-free at 28 days after the start of iNO therapy” value ([1]; in words) of the same molecule?
**A.** The value was “increased”.

**Q.** What about the “Methemoglobin level, Mean (SD)” value ([2]; 4 Hours) of the same molecule?
**A.** Its value is 0.64 (0.33) %.

**Q.** And the “Methemoglobin level, Median” value ([2]; 4 Hours)?
**A.** The value was 0.8%.

**Q.** What about the “Methemoglobin level, Mean (SD)” value ([2]; 24 Hours) of the same molecule?
**A.** Its value is 0.52 (0.37) %.

**Q.** And the “Methemoglobin level, Median” value ([2]; 24 Hours)?
**A.** The value was 0.5%.

**Q.** And the “Methemoglobin level, Mean (SD)” value ([2]; Baseline)?
**A.** The value was 0.56 (0.35) %.

**Q.** And the “Methemoglobin level, Median” value ([2]; Baseline)?
**A.** The value was 0.5%.

**Q.** What about the “Percent methemoglobin levels versus placebo group” value ([2]; at most time points, in words) of the same molecule?
**A.** Its value is “equal to or less than”.

**Q.** What about the percent methemoglobin levels ([2]; baseline, Hours 4 and 24, in words) of the same molecule?
**A.** Its percent methemoglobin levels is “within normal limits”.

**Q.** And the “Diastolic BP, Mean (SD)” value ([3]; 24 Hours)?
**A.** Its value is 56.0 (12.7) mmHg.

**Q.** What about the “Diastolic BP, Median” value ([3]; 24 Hours) of the same molecule?
**A.** The value was 54.5 mmHg.

**Q.** And the “Systolic BP, Mean (SD)” value ([3]; 24 Hours)?
**A.** Its value is 97.9 (21.7) mmHg.

**Q.** And the “Systolic BP, Median” value ([3]; 24 Hours)?
**A.** The value was 103.0 mmHg.

**Q.** And the “Diastolic BP, Mean (SD)” value ([3]; Baseline)?
**A.** The value was 54.6 (11.6) mmHg.

**Q.** What about the “Diastolic BP, Median” value ([3]; Baseline) of the same molecule?
**A.** Its value is 55.5 mmHg.

**Q.** What about the “Systolic BP, Mean (SD)” value ([3]; Baseline) of the same molecule?
**A.** The value was 94.4 (17.4) mmHg.

**Q.** What about the “Systolic BP, Median” value ([3]; Baseline) of the same molecule?
**A.** The value was 95.5 mmHg.
